A word on the IC50: it is the point on the concentration scale where inhibition reaches its midpoint.

The results in this text go back to patent publication US20250340557A1, “PYRIMIDINE DERIVATIVE” (ASKA PHARMACEUTICAL CO., LTD., priority 2022, published 2025).

One assay concerns the target T1, human mPGES-1 (Homo sapiens, UniProt O14684).
T1 construct: made in house; host or cells: COS-1 cells (transient transfection; microsomal fraction used as enzyme)
T1 sequence (O14684 1-152): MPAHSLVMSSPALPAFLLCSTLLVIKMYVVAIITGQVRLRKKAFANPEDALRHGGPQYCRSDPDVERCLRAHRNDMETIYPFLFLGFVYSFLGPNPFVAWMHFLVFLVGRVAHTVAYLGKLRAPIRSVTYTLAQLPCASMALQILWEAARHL
The assay can be described thus: Test for mPGES-1 inhibitory activity (microsomal enzyme, PGE2 EIA). In kind it is biochemical. The note with it: microsomes from COS-1 cells transfected with human mPGES-1 cDNA; substrate PGH2 1 μM; 4° C., 4 minutes; PGE2 measured by EIA; read-out: h mPGES1 IC50. How it is done: Test Example 1: Test for mPGES-1 Inhibitory Activity
Microsomes were prepared from COS-1 cells transiently transfected with a plasmid containing human mPGES-1 cDNA, and used as mPGES-1 enzyme. The mPGES-1 enzyme was diluted with a sodium phosphate buffer (pH 7.2) containing reduced glutathione (2.5 mM) and EDTA (1 mM), DMSO or a DMSO solution of a test compound (final concentration of DMSO was 2%) was added to the enzyme, and the mixture was preincubated at 4° C. for 15 minutes. Then, PGH2 (Prostaglandin H2) as the substrate was added at a final concentration of 1 μM to start the enzymatic reaction, and after incubation at 4° C. for 4 minutes, a solution of ferric chloride (25 mM) and citric acid (50 mM) was added to terminate the enzymatic reaction. Generated PGE2 (Prostaglandin E2) was measured by using Prostaglandin E2 Express EIA Kit (Cayman Chemical). IC50 values were determined by using a standard method.
With `O=C(NCc1ccc(C(F)(F)F)c(-c2nccc(=O)[nH]2)c1F)C1CCN(c2ccc(C(F)(F)F)cn2)CC1` [Example 28, N-[2-fluoro-3-(6-oxo-1,6-dihydropyrimidin-2-yl)-4-(trifluoromethyl)benzyl]-1-[5-(trifluoromethyl)pyridin-2-yl]piperidine-4-carboxamide], the IC50 is less than 1 nM.

On to `O=C(NCc1ccc(C(F)(F)F)c(-c2nc(C(F)F)cc(=O)[nH]2)c1F)C1CCN(c2ccc(C(F)(F)F)cn2)CC1` [Example 29, N-{3-[4-(difluoromethyl)-6-oxo-1,6-dihydropyrimidin-2-yl]-2-fluoro-4-(trifluoromethyl)benzyl}-1-[5-(trifluoromethyl)pyridin-2-yl]piperidine-4-carboxamide], for which the half-inhibitory concentration (IC50) was 11 nM.

`O=C(NCc1ccc(C(F)(F)F)c(-c2nc(C(F)(F)F)cc(=O)[nH]2)c1F)C1(F)CCN(c2ccc(C(F)(F)F)cn2)CC1` [Example 38, 4-fluoro-N-{2-fluoro-3-[6-oxo-4-(trifluoromethyl)-1,6-dihydropyrimidin-2-yl]-4-(trifluoromethyl)benzyl}-1-[5-(trifluoromethyl)pyridin-2-yl]piperidine-4-carboxamide]: the 50% inhibitory concentration (IC50) was 7.8 nM.

With `Cc1cc(=O)[nH]c(-c2c(C(F)(F)F)ccc(CNC(=O)C3(F)CCN(c4ccc(C(F)(F)F)cn4)CC3)c2F)n1` [Example 56, 4-fluoro-N-[2-fluoro-3-(4-methyl-6-oxo-1,6-dihydropyrimidin-2-yl)-4-(trifluoromethyl)benzyl]-1-[5-(trifluoromethyl)pyridin-2-yl]piperidine-4-carboxamide], the half-inhibitory concentration (IC50) worked out at 21 nM.

Regarding `O=c1cc(C(F)(F)F)nc(-c2c(C(F)(F)F)ccc(CNC(=O)[C@H]3CC[C@H](OCc4ccc(F)cc4F)CC3)c2F)[nH]1` [Example 114, trans-4-[(2,4-difluorobenzyl)oxy]-N-{2-fluoro-3-[6-oxo-4-(trifluoromethyl)-1,6-dihydropyrimidin-2-yl]-4-(trifluoromethyl)benzyl}cyclohexane-1-carboxamide], the IC50 worked out at 5.2 nM.

With `O=C(NCc1ccc(C(F)(F)F)c(-c2nc(C(F)(F)F)cc(=O)[nH]2)c1F)C1CN(c2ccc(C(F)(F)F)cn2)C1` [Example 25, N-{2-fluoro-3-[6-oxo-4-(trifluoromethyl)-1,6-dihydropyrimidin-2-yl]-4-(trifluoromethyl)benzyl}-1-[5-(trifluoromethyl)pyridin-2-yl]azetidine-3-carboxamide], the IC50 was less than 1 nM.

As for `Cc1cnc2ccc(N3CCC(C(=O)NCc4ccc(C(F)(F)F)c(-c5nc(C(F)(F)F)cc(=O)[nH]5)c4F)CC3)nn12` [Example 3, N-{2-fluoro-3-[6-oxo-4-(trifluoromethyl)-1,6-dihydropyrimidin-2-yl]-4-(trifluoromethyl)benzyl}-1-(3-methylimidazo[1,2-b]pyridazin-6-yl)piperidine-4-carboxamide], the half-maximal inhibitory concentration (IC50) is less than 1 nM.

`O=C(NCc1ccc(C(F)(F)F)c(-c2nc(C(F)(F)F)cc(=O)[nH]2)c1F)C1CCN(c2cnc(C(F)(F)F)cn2)CC1` [Example 36, N-{2-fluoro-3-[6-oxo-4-(trifluoromethyl)-1,6-dihydropyrimidin-2-yl]-4-(trifluoromethyl)benzyl}-1-[5-(trifluoromethyl)pyrazin-2-yl]piperidine-4-carboxamide]: the IC50 came out at 14 nM.

Consider `O=c1cc(C(F)(F)F)nc(-c2c(C(F)(F)F)ccc(CNC(=O)[C@H]3C[C@@H](OCc4cccc(Cl)c4)C3)c2F)[nH]1` (stereo in doubt) [Example 139, cis-3-[(3-chlorobenzyl)oxy]-N-{2-fluoro-3-[6-oxo-4-(trifluoromethyl)-1,6-dihydropyrimidin-2-yl]-4-(trifluoromethyl)benzyl}cyclobutane-1-carboxamide], for which the IC50 is less than 1 nM.

Still in this assay, the particulars now being: microsomes of COS-1 cells transfected with human mPGES-1 cDNA; PGH2 1 μM; 4° C., 4 minutes; PGE2 by EIA; read-out: h mPGES1 IC50.
Take `O=c1cc(C(F)F)nc(-c2c(C(F)(F)F)ccc(CNC(=O)[C@H]3C[C@H](OCc4ccc(F)c(F)c4)C3)c2F)[nH]1` [Example 169, trans-3-[(3,4-difluorobenzyl)oxy]-N-{3-[4-(difluoromethyl)-6-oxo-1,6-dihydropyrimidin-2-yl]-2-fluoro-4-(trifluoromethyl)benzyl}cyclobutane-1-carboxamide]: the half-inhibitory concentration (IC50) was less than 1 nM.

Take `O=c1cc(C(F)(F)F)nc(-c2c(C(F)(F)F)ccc(CNC(=O)[C@H]3C[C@@H](Oc4ccc(C(F)(F)F)cn4)C3)c2F)[nH]1` [Example 250, cis-N-{2-fluoro-3-[6-oxo-4-(trifluoromethyl)-1,6-dihydropyrimidin-2-yl]-4-(trifluoromethyl)benzyl}-3-{[5-(trifluoromethyl)pyridin-2-yl]oxy}cyclobutane-1-carboxamide]: the IC50 was less than 1 nM.

`Cc1nc(-c2c(C(F)(F)F)ccc(CNC(=O)[C@H]3C[C@H](OCc4ccc(F)c(Cl)c4)C3)c2F)[nH]c(=O)c1F` [Example 227, trans-3-[(3-chloro-4-fluorobenzyl)oxy]-N-[2-fluoro-3-(5-fluoro-4-methyl-6-oxo-1,6-dihydropyrimidin-2-yl)-4-(trifluoromethyl)benzyl]cyclobutane-1-carboxamide]: the IC50 was less than 1 nM.

For `Cc1nc(-c2c(C(F)(F)F)ccc(CNC(=O)[C@H]3C[C@H](OCc4cc(Cl)ccc4F)C3)c2F)[nH]c(=O)c1F` [Example 226, trans-3-[(5-chloro-2-fluorobenzyl)oxy]-N-[2-fluoro-3-(5-fluoro-4-methyl-6-oxo-1,6-dihydropyrimidin-2-yl)-4-(trifluoromethyl)benzyl]cyclobutane-1-carboxamide], the IC50 was less than 1 nM.

Consider `Cc1nc(-c2c(C(F)(F)F)ccc(CNC(=O)[C@H]3C[C@H](OCc4ccc(C(F)(F)F)cc4)C3)c2F)[nH]c(=O)c1F` [Example 217, trans-N-[2-fluoro-3-(5-fluoro-4-methyl-6-oxo-1,6-dihydropyrimidin-2-yl)-4-(trifluoromethyl)benzyl]-3-{[4-(trifluoromethyl)benzyl]oxy}cyclobutane-1-carboxamide], for which the IC50 amounted to 16 nM.

For the compound `Cc1cc(=O)[nH]c(-c2c(C(F)(F)F)ccc(CNC(=O)[C@H]3C[C@H](OCc4cc(F)cc(Cl)c4)C3)c2F)n1` [Example 194, trans-3-[(3-chloro-5-fluorobenzyl)oxy]-N-[2-fluoro-3-(4-methyl-6-oxo-1,6-dihydropyrimidin-2-yl)-4-(trifluoromethyl)benzyl]cyclobutane-1-carboxamide], the IC50 worked out at 3.6 nM.

On to `CCc1nc(-c2c(C(F)(F)F)ccc(CNC(=O)[C@H]3C[C@H](OCc4cc(Cl)ccc4F)C3)c2F)[nH]c(=O)c1F` [Example 243, trans-3-[(5-chloro-2-fluorobenzyl)oxy]-N-[3-(4-ethyl-5-fluoro-6-oxo-1,6-dihydropyrimidin-2-yl)-2-fluoro-4-(trifluoromethyl)benzyl]cyclobutane-1-carboxamide], for which the half-maximal inhibitory concentration (IC50) is less than 1 nM.

As for `CCc1cc(=O)[nH]c(-c2c(C(F)(F)F)ccc(CNC(=O)[C@H]3C[C@H](OCc4ccc(F)cc4F)C3)c2F)n1` [Example 201, trans-3-[(2,4-difluorobenzyl)oxy]-N-[3-(4-ethyl-6-oxo-1,6-dihydropyrimidin-2-yl)-2-fluoro-4-(trifluoromethyl)benzyl]cyclobutane-1-carboxamide], the IC50 is less than 1 nM.

With `CCc1nc(-c2c(C(F)(F)F)ccc(CNC(=O)[C@H]3C[C@H](OCc4cccc(F)c4F)C3)c2F)[nH]c(=O)c1F` [Example 240, trans-3-[(2,3-difluorobenzyl)oxy]-N-[3-(4-ethyl-5-fluoro-6-oxo-1,6-dihydropyrimidin-2-yl)-2-fluoro-4-(trifluoromethyl)benzyl]cyclobutane-1-carboxamide], the IC50 amounted to 3.2 nM.

With `CCc1cc(=O)[nH]c(-c2c(C(F)(F)F)ccc(CNC(=O)[C@H]3C[C@H](OCc4cccc(C(F)(F)F)c4)C3)c2F)n1` [Example 199, trans-N-[3-(4-ethyl-6-oxo-1,6-dihydropyrimidin-2-yl)-2-fluoro-4-(trifluoromethyl)benzyl]-3-{[3-(trifluoromethyl)benzyl]oxy}cyclobutane-1-carboxamide], the half-maximal inhibitory concentration (IC50) stood at 1.1 nM.

Take `Cc1cc(=O)[nH]c(-c2c(C(F)(F)F)ccc(CNC(=O)[C@H]3C[C@H](OCc4cccc(Cl)c4)C3)c2F)n1` [Example 179, trans-3-[(3-chlorobenzyl)oxy]-N-[2-fluoro-3-(4-methyl-6-oxo-1,6-dihydropyrimidin-2-yl)-4-(trifluoromethyl)benzyl]cyclobutane-1-carboxamide]: the IC50 is less than 1 nM.

Take `CCc1cc(=O)[nH]c(-c2c(C(F)(F)F)ccc(CNC(=O)[C@H]3C[C@H](OCc4ccccc4Cl)C3)c2F)n1` [Example 195, trans-3-[(2-chlorobenzyl)oxy]-N-[3-(4-ethyl-6-oxo-1,6-dihydropyrimidin-2-yl)-2-fluoro-4-(trifluoromethyl)benzyl]cyclobutane-1-carboxamide]: the 50% inhibitory concentration (IC50) is less than 1 nM.

Turning to `O=c1cc(C(F)F)nc(-c2c(C(F)(F)F)ccc(CNC(=O)[C@H]3C[C@H](OCc4cc(F)cc(Cl)c4)C3)c2F)[nH]1` [Example 177, trans-3-[(3-chloro-5-fluorobenzyl)oxy]-N-{3-[4-(difluoromethyl)-6-oxo-1,6-dihydropyrimidin-2-yl]-2-fluoro-4-(trifluoromethyl)benzyl}cyclobutane-1-carboxamide], the 50% inhibitory concentration (IC50) was 10 nM.
